In article PMC11769294, “(E)-1-(3-(3-Hydroxy-4-Methoxyphenyl)-1-(3,4,5-Trimethoxyphenyl)allyl)-1H-1,2,4-Triazole and Related Compounds: Their Synthesis and Biological Evaluation as Novel Antimitotic Agents Targeting Breast Cancer” (Pharmaceuticals, 2025):

Experiments:
Assay in all cases: NCI60 screen (SRB)
Assay type in all cases: cell-based, human
CCRF-CEM (Leukemia) = conditions: 48 h; for growth percent: one dose 10 µM
MOLT-4 (Leukemia) = conditions: one dose 10 µM, 48 h
[1] = tested on: EKVX (Non-Small Cell Lung Cancer); conditions: 48 h; for growth percent: one dose 10 µM
[2] = tested on: HOP-92 (Non-Small Cell Lung Cancer); conditions: 48 h; for growth percent: one dose 10 µM
[3] = tested on: NCI-H226 (Non-Small Cell Lung Cancer); conditions: 48 h; for growth percent: one dose 10 µM
[4] = tested on: NCI-H23 (Non-Small Cell Lung Cancer); conditions: 48 h; for growth percent: one dose 10 µM
[5] = tested on: NCI-H322M (Non-Small Cell Lung Cancer); conditions: 48 h; for growth percent: one dose 10 µM
[6] = tested on: NCI-H460 (Non-Small Cell Lung Cancer); conditions: for growth percent: one dose 10 µM; for GI50: five-dose
[7] = tested on: NCI-H522 (Non-Small Cell Lung Cancer); conditions: for growth percent: one dose 10 µM; for GI50: five-dose
SF-268 (CNS Cancer) = conditions: 48 h; for growth percent: one dose 10 µM
LOX IMVI (Melanoma) = conditions: 48 h; for growth percent: one dose 10 µM
SK-MEL-5 (Melanoma) = conditions: 48 h; for growth percent: one dose 10 µM
UACC-257 (Melanoma) = conditions: 48 h; for growth percent: one dose 10 µM
IGROV1 (Ovarian Cancer) = conditions: 48 h; for growth percent: one dose 10 µM
OVCAR-3 (Ovarian Cancer) = conditions: 48 h; for growth percent: one dose 10 µM
OVCAR-4 (Ovarian Cancer) = conditions: 48 h; for growth percent: one dose 10 µM
OVCAR-5 (Ovarian Cancer) = conditions: 48 h; for growth percent: one dose 10 µM
OVCAR-8 (Ovarian Cancer) = conditions: 48 h; for growth percent: one dose 10 µM
[8] = tested on: NCI/ADR-RES (Ovarian Cancer); conditions: 48 h; for growth percent: one dose 10 µM
786-0 (Renal Cancer) = conditions: 48 h; for growth percent: one dose 10 µM
RXF 393 (Renal Cancer) = conditions: 48 h; for growth percent: one dose 10 µM
SN12C (Renal Cancer) = conditions: 48 h; for growth percent: one dose 10 µM
DU-145 (Prostate Cancer) = conditions: 48 h; for growth percent: one dose 10 µM
HS 578T (Breast Cancer) = conditions: 48 h; for growth percent: HS 578T, one dose 10 µM
[9] = Homo sapiens, five-dose, read-out: IC50 (cell marked * in GI50 column)
[10] = Homo sapiens, five-dose, read-out: IC50 (cell marked * in GI50 column) (converted)

`COc1ccc(/C=C/C(c2cc(OC)c(OC)c(OC)c2)n2cncn2)cc1` (stereo not shown) [Compound 22a, (E)-1-(3-(4-Methoxyphenyl)-1-(3,4,5-trimethoxyphenyl)allyl)-1H-1,2,4-triazole] showed a growth percent (CCRF-CEM (Leukemia)) of 35.07%, a growth percent (MOLT-4 (Leukemia)) of 39.43% and a growth percent [1] of 66.04%. It also gave a growth percent [2] of 40.32%, a growth percent [3] of 75.97% and a growth percent [4] of 67.01%. For the same compound, the growth percent [5] was 61.24%, the growth percent ([6]; 48 h) was 22.14% and the growth percent ([7]; 48 h) was 28.37%. The growth percent (SF-268 (CNS Cancer)) was 57.07%, the growth percent (LOX IMVI (Melanoma)) was 49.98% and the growth percent (SK-MEL-5 (Melanoma)) was 33.03%. It also gave a growth percent (UACC-257 (Melanoma)) of 46.44%, a growth percent (IGROV1 (Ovarian Cancer)) of 64.61% and a growth percent (OVCAR-3 (Ovarian Cancer)) of 9.06%. For the same compound, the growth percent (OVCAR-4 (Ovarian Cancer)) was 96.82%, the growth percent (OVCAR-5 (Ovarian Cancer)) was 90.16% and the growth percent (OVCAR-8 (Ovarian Cancer)) was 52.16%. It also gave a growth percent [8] of 36.28%, a growth percent (786-0 (Renal Cancer)) of 39.65% and a growth percent (RXF 393 (Renal Cancer)) of 46.51%. For the same compound, the growth percent (SN12C (Renal Cancer)) was 62.02%, the growth percent (DU-145 (Prostate Cancer)) was 61.25% and the growth percent (HS 578T (Breast Cancer)) was 51.18%.
In the case of `COc1ccc(/C=C/C(c2cc(OC)c(OC)c(OC)c2)n2cncn2)cc1O` (stereo not shown) [Compound 22b, (E)-5-(3-(1H-1,2,4-Triazol-1-yl)-3-(3,4,5-trimethoxyphenyl)prop-1-en-1-yl)-2-methoxyphenol], the GI50 (CCRF-CEM (Leukemia); Homo sapiens, five-dose) is reported as 0.032 µM, the growth percent (CCRF-CEM (Leukemia)) is reported as 6.31% and the growth percent (MOLT-4 (Leukemia)) is reported as 21.84%. It also gave a GI50 ([1]; Homo sapiens, five-dose) of 6.07 µM, a growth percent [1] of 59.45% and a GI50 ([2]; Homo sapiens, five-dose) of 67 µM. The growth percent [2] was 47.98%, the GI50 ([3]; Homo sapiens, five-dose) was 5.93 µM and the growth percent [3] was 62.21%. The GI50 ([4]; Homo sapiens, five-dose) was 3.47 µM, the growth percent [4] was 41.50% and the IC50 [5, 9] was > 100 µM. For the same compound, the growth percent [5] was 54.65%, the GI50 ([6]; Homo sapiens, NCI-H460, 48 h) was 0.042 µM and the GI50 ([6]; 48 h) was 0.0423 µM. It also gave a growth percent ([6]; 48 h) of 13.26%, a GI50 ([7]; Homo sapiens, NCI-H522, 48 h) of 0.022 µM and a GI50 ([7]; 48 h) of 0.0223 µM. It also gave a growth percent ([7]; 48 h) of 13.04%, a GI50 (SF-268 (CNS Cancer); Homo sapiens, five-dose) of 0.0589 µM and a growth percent (SF-268 (CNS Cancer)) of 54.09%. The GI50 (LOX IMVI (Melanoma); Homo sapiens, five-dose) was 0.0511 µM, the growth percent (LOX IMVI (Melanoma)) was 50.87% and the GI50 (SK-MEL-5 (Melanoma); Homo sapiens, five-dose) was 0.0458 µM. For the same compound, the growth percent (SK-MEL-5 (Melanoma)) was 23.87%, the GI50 (UACC-257 (Melanoma); Homo sapiens, five-dose) was > 100 µM and the growth percent (UACC-257 (Melanoma)) was 55.61%. It also gave a GI50 (IGROV1 (Ovarian Cancer); Homo sapiens, IGROV-1, five-dose) of 5.83 µM, a growth percent (IGROV1 (Ovarian Cancer)) of 50.48% and a GI50 (OVCAR-3 (Ovarian Cancer); Homo sapiens, five-dose) of 0.026 µM. It also gave a growth percent (OVCAR-3 (Ovarian Cancer)) of 15.65%, a GI50 (OVCAR-4 (Ovarian Cancer); Homo sapiens, five-dose) of 7.05 µM and a growth percent (OVCAR-4 (Ovarian Cancer)) of 83.51%. The GI50 (OVCAR-5 (Ovarian Cancer); Homo sapiens, five-dose) was 4.48 µM, the growth percent (OVCAR-5 (Ovarian Cancer)) was 86.55% and the IC50 (OVCAR-8 (Ovarian Cancer); [10]) was 3.63 µM. It also gave a growth percent (OVCAR-8 (Ovarian Cancer)) of 15.99%, an IC50 [8, 9] of 5.25 µM and a growth percent [8] of 10.82%. The IC50 (786-0 (Renal Cancer); [10]) was 8.91 µM, the growth percent (786-0 (Renal Cancer)) was 23.33% and the IC50 (RXF 393 (Renal Cancer); [9]) was > 100 µM. The growth percent (RXF 393 (Renal Cancer)) was −16.94%, the GI50 (SN12C (Renal Cancer); Homo sapiens, five-dose) was 7.19 µM and the growth percent (SN12C (Renal Cancer)) was 49.61%. The IC50 (DU-145 (Prostate Cancer); [10]) was 6.61 µM, the growth percent (DU-145 (Prostate Cancer)) was 21.00% and the growth percent (HS 578T (Breast Cancer)) was 28.47%. The IC50 (HS 578T (Breast Cancer); Homo sapiens, Hs-578T, read-out: IC50 (cell marked * in GI50 column)) was > 100 µM.
